System: anti-abietic acid antibody
Experiment: Competition ELISA assay with natural hormones (crossreaction of anti-abietic acid antibody)
Assay type: binding, mouse
Conditions: for inhibition / crossreaction in competition ELISA: increasing concentrations of hormone in 5 μg/ml anti-abietic acid antibody, abietic acid-ODN antigen phase, read at 492 nm
Experimental: The antigen phase was obtained as described in Example 11, and then increasing concentrations of hormone dissolved in a 5 μg/ml solution of anti-abietic acid antibody in PBS-Tween containing 10% by volume of horse serum are incubated for one hour at 37° C. After washes with PBS-Tween, an anti-mouse antibody antibody coupled to peroxidase, in solution in PBS-Tween-horse [lacuna] is incubated for one hour at 37° C. After washes, the enzymatic substrate, o-phenylenediamine, is added. The colorimetric reaction is stopped by adding 1N sulfuric acid. The intensity of the coloration is read at 492 nm on a bioMérieux Axia Micro-reader.

In the case of C[C@]12CC[C@H]3[C@@H](CCC4=CC(=O)CC[C@@]43C)[C@@H]1CC[C@@H]2O [testosterone], the “inhibition / crossreaction in competition ELISA” value (shortened to “inhibition / crossreaction”) was “no inhibition”.
For CC(=O)[C@H]1CC[C@H]2[C@@H]3CCC4=CC(=O)CC[C@]4(C)[C@H]3CC[C@]12C [progesterone], the “inhibition / crossreaction” value was “no inhibition”.
In the case of N[C@@H](Cc1cc(I)c(Oc2cc(I)c(O)c(I)c2)c(I)c1)C(=O)O [Example T4], the inhibition (concentration of 0.33 μmol/ml of hormone) was 25% and the “inhibition / crossreaction” value was “crossreaction is observed”.
